Marks after values point to notes of the source that are not given here.
How the values were obtained:
[1] = system: adipocytes (3T3-L1) and myotubes (C2C12); experiment: Fatty acid oxidation screening: dose-response curves and synergy, cell type not separately stated; format: cell-based; conditions: for concentration that exerts no effect in dose-response curves (sub-therapeutic dose used in synergy experiments): fatty acid oxidation dose-response
[2] = target: T1, Sirt3 (Mus musculus, UniProt Q8R104); experiment: Sirt3 activity in mitochondrial protein of treated 3T3-L1 adipocytes; format: cell-based; conditions: leucine 0.5 mM, HMB 5 μM, resveratrol 200 nM; summary in Example 5
T1 construct: endogenous in cells; host or cells: 3T3-L1 adipocytes (mitochondrial protein)
T1 sequence (Q8R104 1-334): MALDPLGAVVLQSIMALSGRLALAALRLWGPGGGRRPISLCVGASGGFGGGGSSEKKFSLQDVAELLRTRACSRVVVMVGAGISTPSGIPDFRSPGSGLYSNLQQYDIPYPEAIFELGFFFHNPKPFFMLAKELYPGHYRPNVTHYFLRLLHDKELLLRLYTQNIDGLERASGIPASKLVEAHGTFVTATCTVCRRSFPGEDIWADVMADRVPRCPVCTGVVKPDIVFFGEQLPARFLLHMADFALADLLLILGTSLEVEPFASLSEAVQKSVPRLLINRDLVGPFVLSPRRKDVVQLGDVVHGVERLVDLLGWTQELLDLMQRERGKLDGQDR

[3] = system: c2c12 myotubes; experiment: Fatty acid oxidation (FAO) in c2c12 myotubes, Example 1; format: cell-based; conditions: in the presence and absence of 20 nM rapamycin
Description: We have shown that catabolic systems are also stimulated to fuel this process, resulting in increased mitochondrial biogenesis and fatty acid oxidation (FAO). To address the mechanism of this effect, we first determined its mTOR-dependence by assessing leucine stimulation of FAO in the presence and absence of 20 nM rapamycin; although rapamycin inhibited FAO in c2c12 myotubes, the degree of leucine stimulation was preserved (˜50%, p<0.03; FIG. 1).
(§1) We next investigated the role of intact leucine (0-0.5 mM) vs. its metabolites, α-ketoisocaproic acid (KIC) (0-0.5 mM) and HMB (0-50 μM). […] Both leucine and HMB increased myotube mitochondrial biogenesis (assessed fluorometrically via NAO binding) by ˜50%, (p<0.005, FIG. 3).

[4] = system: Adipocytes (3T3-L1); experiment: Fatty acid oxidation by 3H-palmitate in 3T3-L1 adipocytes; format: cell-based; conditions: 4 hours, resveratrol 200 nM, HMB 5 uM, leucine 0.5 mM; for increase in fatty acid oxidation, low glucose: low (5 mM) glucose
Description: High glucose medium reduced fatty acid oxidation by 46% (p<0.05).
Fatty acid oxidation was measured using ^3H-labeled palmitate oxidation, with the ^3H label trapped as water as a result of the fat oxidation. The ^3H was then measured via scintillation counter.

[5] = system: myotube; experiment: Myotube mitochondrial biogenesis, fluorometric NAO binding, Example 1; format: cell-based; conditions: myotubes
Description: as §1

[6] = system: PGC-1α, NRF-1, UCP3 genes; experiment: Expression of mitochondrial regulatory and component genes; format: cell-based
[7] = system: c2c12 myotubes; experiment: Glucose utilization, extracellular acidification response to glucose, myotubes; format: cell-based; conditions: leucine 0.5 mM, HMB 5 μM, resveratrol 200 nM, partner at its no-effect concentration
Description: All compounds were tested for potential to independently or synergistically modulate sirtuin signaling either by direct stimulation or indirect via upstream signaling via AMPK. A key outcome of Sirt1 signaling is stimulation of PGC1-α and subsequent stimulation of mitochondrial biogenesis and fatty acid oxidation. Accordingly, fatty acid oxidation, measured as palmitate-induced oxygen consumption as described below, was utilized as a sensitive first level of screening for aerobic mitochondrial metabolism. A dose-response curve for fatty acid oxidation was established for each compound studied, and a “sub-therapeutic dose” was defined as the highest dose that exerted no effect in this system. […] Following assessment of fatty acid oxidation, Sirt1 activity, AMPK activity, mitochondrial biogenesis and glucose utilization (measured as glucose-induced extracellular acidification in the absence of fatty acids in the media) were assessed for lead combinations and appropriate controls. In the absence of a fatty acid source and oxidative metabolism, glycolysis and subsequent lactate production results in extracellular acidification, which was also measured using a Seahorse Bioscience XF24 analyzer. […] Data for each sample were normalized to the pre-glucose injection baseline for that sample and expressed as % change from that baseline. […]

[8] = db/db mice, day 7, insulin 0.75 U/kg i.p.; standard metformin dose or blends
[9] = db/db mice, 2 weeks
[10] = Plasma insulin, glucose and HOMAIR in diabetic db/db mice; format: in vivo; conditions: 2 weeks, low dose (150 mg/kg) and very low dose (50 mg/kg) of metformin
[11] = system: myotubes (C2C12); experiment: Fatty acid oxidation, palmitate-induced O2 consumption (Seahorse XF24), myotubes; format: cell-based; conditions: 24 hours treatment, leucine 0.5 mM, HMB 5 μM, resveratrol 200 nM, partner at its no-effect concentration, % change from control
[12] = Body weight, weight gain and visceral adipose volume in diet-induced obese mice; format: in vivo, c57/BL6 mice; conditions: 6 weeks on diet, low resveratrol 12.5 mg/kg diet, low HMB 2 g CaHMB/kg diet, high HMB 10 g CaHMB/kg diet, leucine 2.42% of diet
Text: (§2) Six week old male c57/BL6 mice were fed a high-fat diet with fat increased to 45% of energy (Research Diets D12451) for 6 weeks to induce obesity.
At the of the treatment period (6 weeks) all animals were humanely euthanized, and blood and tissues collected for further experiments.

[13] = system: C-reactive protein, IL-6, MCP-1, adiponectin; experiment: Circulating inflammatory biomarkers in diet-induced obese mice; format: in vivo, c57/BL6 mice; conditions: 6 weeks on diet, low resveratrol 12.5 mg/kg diet, low HMB 2 g CaHMB/kg diet, high HMB 10 g CaHMB/kg diet, leucine 2.42% of diet
[14] = Indices of insulin sensitivity (plasma glucose, insulin, HOMAIR) in diet-induced obese mice; format: in vivo, c57/BL6 mice; conditions: 6 weeks on diet, low resveratrol 12.5 mg/kg diet, low HMB 2 g CaHMB/kg diet, high HMB 10 g CaHMB/kg diet, leucine 2.42% of diet
Text: Insulin sensitivity can be measured using a variety of techniques, including HOMAIR. HOMAIR, which is the homeostasis model assessment of insulin resistance can be used as a screening index of changes in insulin sensitivity. HOMAIR can be calculated via standard formula from fasting plasma insulin and glucose as follows: HOMAIR=[Insulin (uU/mL)×glucose (mM)]/22.5.
as §2

[15] = target: T2, SIRT1 (Mus musculus, UniProt Q923E4); experiment: Adipose tissue Sirt1 activity in diet-induced obese mice; format: in vivo, c57/BL6 mice; design: from tissue; host or cells: adipose tissue of diet-induced obese c57/BL6 mice; conditions: 6 weeks, low dose of resveratrol, HMB, leucine diets
T2 sequence (Q923E4 1-737): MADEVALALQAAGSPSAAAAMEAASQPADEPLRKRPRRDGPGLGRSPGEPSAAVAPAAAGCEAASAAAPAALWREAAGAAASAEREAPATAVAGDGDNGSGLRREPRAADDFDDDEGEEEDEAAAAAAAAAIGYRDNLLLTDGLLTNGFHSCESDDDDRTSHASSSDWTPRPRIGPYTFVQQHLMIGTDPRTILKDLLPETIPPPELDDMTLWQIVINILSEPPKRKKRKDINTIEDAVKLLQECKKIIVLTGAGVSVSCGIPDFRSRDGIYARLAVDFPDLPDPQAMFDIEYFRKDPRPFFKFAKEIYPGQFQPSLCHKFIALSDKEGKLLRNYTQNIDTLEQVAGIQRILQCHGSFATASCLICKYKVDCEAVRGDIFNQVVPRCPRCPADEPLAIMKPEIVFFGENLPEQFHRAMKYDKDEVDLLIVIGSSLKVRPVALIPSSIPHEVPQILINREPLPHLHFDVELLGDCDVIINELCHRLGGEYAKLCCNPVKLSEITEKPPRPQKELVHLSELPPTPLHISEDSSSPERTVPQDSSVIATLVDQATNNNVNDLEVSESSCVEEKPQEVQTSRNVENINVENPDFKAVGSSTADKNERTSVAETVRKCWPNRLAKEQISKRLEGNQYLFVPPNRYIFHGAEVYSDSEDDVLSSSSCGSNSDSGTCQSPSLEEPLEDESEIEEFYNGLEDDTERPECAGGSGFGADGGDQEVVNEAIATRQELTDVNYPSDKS

fucoxanthin
concentration that exerts no effect in dose-response curves (sub-therapeutic dose used in synergy experiments) [1]: ≤ 100 nM

OC[C@@H](O)[C@@H](O[C@H]1O[C@H](CO)[C@@H](O)[C@H](O)[C@H]1O)[C@H](O)[C@@H](O)CO [Maltitol, maltitol]
concentration that exerts no effect in dose-response curves (sub-therapeutic dose used in synergy experiments) [1]: ≤ 100 nM | synergy with HMB or leucine in stimulating fatty acid oxidation ([1]; leucine 0.5 mM, HMB 5 μM): no synergy was noted

CC(C)C[C@H](N)C(=O)O [leucine]
stimulation of Sirt3 [2]: no independent effects | degree of leucine stimulation of FAO [3]: ~50% | increase in fatty acid oxidation, low glucose [4]: no independent effect | increase in myotube mitochondrial biogenesis (NAO binding) [5]: ~50% | expression of mitochondrial regulatory (PGC-1α and NRF-1) and component (UCP3) genes [6]: stimulated expression

O=C(O[C@@H]1Cc2c(O)cc(O)cc2O[C@@H]1c1cc(O)c(O)c(O)c1)c1cc(O)c(O)c(O)c1 [EGCG, epigallocatechin gallate]
independent activity in dose-response curves / direct stimulation of fatty acid oxidation [1]: minimally active | increase in glucose utilization, myotubes [7]: no independent effect

CN(C)C(=N)N=C(N)N [metformin]
decrease in blood glucose over the 30 minute linear portion of the insulin tolerance test response curve [8]: ~60 mg/dL | visceral fat mass ([9]; control 4.5 g): not affected | effect on body composition ([9]; high dose metformin 300 mg/kg bw): no significant effects | independent effects on any variable studied [10]: no significant independent effects

Cn1c(=O)c2c(ncn2C)n(C)c1=O [Caffeine, caffeine, reference compound]
increase in myotube fatty acid oxidation [11]: neither component exerted an independent effect

Cn1c(=O)c2[nH]cnc2n(C)c1=O [Theophylline, theophylline, reference compound]
concentration that exerts no effect in dose-response curves (sub-therapeutic dose used in synergy experiments) [1]: below 1 μM

O=C(O)/C=C/c1ccc(O)c(O)c1 [Caffeic acid, caffeic acid]
concentration that exerts no effect in dose-response curves (sub-therapeutic dose used in synergy experiments) [1]: ≤ 1000 nM

O=c1oc2c(O)c(O)cc3c(=O)oc4c(O)c(O)cc1c4c23 [Ellagic acid, ellagic acid]
independent activity in dose-response curves / direct stimulation of fatty acid oxidation [1]: little activity, even at high concentrations

CC(C)(O)CC(=O)O [HMB, beta-hydroxymethylbutyrate]
stimulation of Sirt3 [2]: no independent effects | increase in fatty acid oxidation, high glucose ([4]; high (25 mM) glucose, vs. control): 29% | increase in fatty acid oxidation, low glucose [4]: no independent effect | increase in myotube mitochondrial biogenesis (NAO binding) [5]: ~50% | Visceral Adipose Volume [12]: 6184 ± 460^a mm^3 | Weight [12]: 40.3 ± 2.1^a g | Weight gain [12]: 22.5 ± 1.2 g | Adiponectin [13]: 11.1 ± 1.6^a ng/mL | C-reactive protein [13]: 98.6 ± 5.1^a ng/mL | IL-6 [13]: 19.9 ± 3.1^a pg/mL | MCP-1 [13]: 116.8 ± 9.3^a pg/mL | Glucose (plasma) [14]: 4.28 ± 0.49^a mM | Insulin (plasma) [14]: 8.3 ± 1.1^a μU/mL | adipose tissue Sirt1 activity [15]: Neither resveratrol nor HMB exerted significant independent effects | expression of mitochondrial regulatory (PGC-1α and NRF-1) and component (UCP3) genes [6]: stimulated expression
